Substitutions are numbered along the chain they refer to.
Columns and labels:
[1] = system: T1, Kinesin-like protein KIF11 (Homo sapiens), P52732 [A133D]; assay: Inhibition of microtubule-stimulated ATPase activity of human Eg5 A133D mutant expressed in Escherichia coli BL21 by pyruvate kinase/lactate dehydrogenase-linked assay relative to control
T1 sequence (whole entry): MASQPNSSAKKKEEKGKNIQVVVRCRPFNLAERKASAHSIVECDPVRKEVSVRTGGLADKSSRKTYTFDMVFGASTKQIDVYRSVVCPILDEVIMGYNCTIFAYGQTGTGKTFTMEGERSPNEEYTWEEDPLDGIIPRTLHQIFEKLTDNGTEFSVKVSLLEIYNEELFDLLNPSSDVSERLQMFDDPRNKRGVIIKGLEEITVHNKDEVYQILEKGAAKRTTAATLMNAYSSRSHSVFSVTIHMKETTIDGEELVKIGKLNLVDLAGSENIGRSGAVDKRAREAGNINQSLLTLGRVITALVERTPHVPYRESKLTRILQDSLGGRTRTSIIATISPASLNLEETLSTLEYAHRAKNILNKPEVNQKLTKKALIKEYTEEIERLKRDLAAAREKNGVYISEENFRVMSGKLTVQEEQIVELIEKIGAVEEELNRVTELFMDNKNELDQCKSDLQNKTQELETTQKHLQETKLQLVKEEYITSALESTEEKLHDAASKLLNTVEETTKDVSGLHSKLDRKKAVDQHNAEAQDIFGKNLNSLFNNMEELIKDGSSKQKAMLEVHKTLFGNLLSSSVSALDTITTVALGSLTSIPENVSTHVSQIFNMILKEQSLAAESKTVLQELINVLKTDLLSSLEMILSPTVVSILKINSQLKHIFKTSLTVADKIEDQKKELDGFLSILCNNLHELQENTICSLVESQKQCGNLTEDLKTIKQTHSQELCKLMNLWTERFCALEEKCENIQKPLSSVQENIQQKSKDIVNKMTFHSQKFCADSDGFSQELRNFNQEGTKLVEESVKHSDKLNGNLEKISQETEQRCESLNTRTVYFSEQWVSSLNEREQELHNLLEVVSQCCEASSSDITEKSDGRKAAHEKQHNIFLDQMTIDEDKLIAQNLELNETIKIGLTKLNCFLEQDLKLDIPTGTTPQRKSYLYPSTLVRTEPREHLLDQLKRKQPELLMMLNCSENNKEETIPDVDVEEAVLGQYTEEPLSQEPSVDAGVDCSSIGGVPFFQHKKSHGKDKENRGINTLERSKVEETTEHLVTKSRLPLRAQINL

[2] = system: T2, Kinesin-like protein KIF11 (Homo sapiens), P52732 [D130V,A133D]; assay: Inhibition of microtubule-stimulated ATPase activity of human Eg5 D130V/A133D mutant expressed in Escherichia coli BL21 by pyruvate kinase/lactate dehydrogenase-linked assay relative to control
T2 sequence (whole entry): T1 sequence (whole entry) with D130V

[3] = biological target: T3, Kinesin-like protein KIF11 (Homo sapiens) (UniProt P52732); assay: Inhibition of microtubule-stimulated ATPase activity of N-terminal His-6-tagged human wild type Eg5 (1 to 368) expressed in Escherichia coli BL21 by pyruvate kinase/lactate dehydrogenase-linked assay relative to control
T3 sequence (whole entry): T1 sequence (whole entry) with D133A

[4] = system: T4, Kinesin-like protein KIF11 (Homo sapiens), P52732 [D130V]; assay: Inhibition of microtubule-stimulated ATPase activity of human Eg5 D130V mutant expressed in Escherichia coli BL21 by pyruvate kinase/lactate dehydrogenase-linked assay relative to control
T4 sequence (whole entry): T1 sequence (whole entry) with D130V, D133A

Cc1ccc(C(=O)N(CCCN)[C@@H](c2oc3cc(Cl)ccc3c(=O)c2Cc2ccccc2)C(C)C)cc1
ICmax [1]: 50%
ICmax [2]: 10%
ICmax [3]: 95%
ICmax [4]: 50%

Reference: ChEMBL document CHEMBL2417484, “Mitotic kinesin Eg5 overcomes inhibition to the phase I/II clinical candidate SB743921 by an allosteric resistance mechanism” (J Med Chem, 2013)
